The values below come from PubChem BioAssay (NCI).

Holding throughout (test): NCI-60 cell line screen, 48 h
Assay [1] has as its system BT-549 breast.
Assay [2] has as its system NCI-H522 lung.
Assay [3] concerns OVCAR-5 ovarian.
Assay [4] relates to RPMI-8226 leukemia.
In assay [5] the test system is SF-295 CNS.
Assay [6] has as its system SK-MEL-2 melanoma.
Assay [7] concerns SK-MEL-28 melanoma.
The test system of assay [8] is SR leukemia.
The test system of assay [9] is T-47D breast.
Assay [10] deals with OVCAR-3 ovarian.

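Method: 48-hour compound exposure of cells in 96-well plates, five concentrations, linear interpolation of endpoints. Definition used: TGI = concentration required for complete inhibition of growth.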 Where a SMILES comes first, the peptide text is derived from it. The star is where a group is joined. OSu = O=C1CCC(=O)N1O*

Regarding `C[C@]12[C@@H]3CC[C@H]1[C@@H](O)C(=O)N2CC3`, the TGI in [1], in [2], in assay [3], in [4], in [5] and in [6] was over 100 µM in each case. Besides, the TGI in assay [7], in assay [8] and in [9] was over 100 µM each time.

Consider `Cc1ccc(-[n+]2cc([O-])on2)cc1`, for which the TGI in assay [1], in [2], in [10], in assay [3], in [4] and in assay [5] was over 100 µM throughout. The TGI in assay [6], in assay [7], in assay [8] and in assay [9] was over 100 µM each time.

Regarding `C(=C/CCCN1O[C@@H](CCCCCCCCc2cccnc2)[C@H]2CCC[C@H]21)/CCCCCCCCCc1cccnc1`, the TGI in assay [1] came out at 95.7 µM; in assay [10], 36.1 µM; in assay [3] it was 41.5 µM; in [4] it was 28 µM; in assay [5] it was 41.9 µM; in [6], 52.4 µM. For the same compound, the TGI in assay [7] is 48.7 µM; in [8], 51.5 µM; in assay [9] it was 66.6 µM.

As to `CC(N)/C(N)=N/O` (stereo unspecified), the TGI in assay [1], in assay [2], in assay [10], in assay [3], in [4] and in assay [5] was over 100 µM throughout. Further, the TGI in assay [6], in assay [7], in assay [8] and in [9] was over 100 µM each time.

Consider `O=C(C(=O)n1ccc2ccccc21)n1ccc2ccccc21`, for which the TGI in assay [1], in assay [2], in assay [10], in assay [3], in assay [4] and in [5] was over 100 µM each time. Besides, the TGI in assay [6], in assay [7], in assay [8] and in assay [9] was over 100 µM throughout.

For `CCCCCCc1cc2cc(-c3cn4ccsc4n3)c(=O)oc2cc1O`, the TGI in [1], in assay [2], in [10], in [3], in assay [4] and in assay [5] was over 100 µM in each case. Besides, the TGI is over 100 µM in assay [6], over 35.9 µM in assay [7], over 100 µM in assay [8] and over 100 µM in assay [9].

For the compound `CC(=O)CC1CCC(=O)/C=C/C(=O)OC(CC(C)=O)CCC(=O)/C=C/C(=O)O1` (stereo unspecified), the TGI in assay [1] was 6.7 µM; in [2] it was 2.91 µM; in [10], 17.1 µM; in assay [3], 31.5 µM; in assay [4], over 100 µM; in assay [5], 18.4 µM. The TGI in assay [6] was 19.8 µM; in assay [7], 20.5 µM; in assay [8], over 100 µM; in [9] it was 6.79 µM.

On to `CCOC(=O)c1ccc(-c2cc(C)no2)[nH]1`, for which the TGI in assay [1], in assay [2], in assay [10], in assay [3], in [4] and in assay [5] was over 100 µM each time. The TGI in assay [6], in [7] and in [9] was over 100 µM each time.

Turning to `C[C@]12c3c4cc(NC(=O)C(=O)NCc5ccc(-c6ccccn6)nc5)cc3Oc3cc(NC(=O)C(=O)NCc5ccc(-c6ccccn6)nc5)cc(c31)OC1C=C(NC(=O)C(=O)NCc3ccc(-c5ccccn5)nc3)C=C(O4)C12` (stereo partly specified), the TGI in assay [1], in [2], in assay [10], in assay [3], in [4] and in assay [5] was over 100 µM in each case. Moreover, the TGI is over 100 µM in assay [6], over 100 µM in [7], 51.9 µM in assay [8] and 97.9 µM in assay [9].

For `NCCCCC(NC(=O)C(N)Cc1ccc(O)cc1)C(=O)NC(CCCCN)C(=O)NC(CCCCN)C(=O)ON1C(=O)CCC1=O` (stereo unspecified) (H-YKKK-OSu; configuration not given here), the TGI in assay [1], in [3], in assay [4], in assay [6], in assay [7] and in assay [8] was over 100 µM each time. Also, the TGI in [9] is over 100 µM.

For the compound `CCN(CC)CCCNC(=O)c1cc(-c2nccn2C)nc2ccccc12`, the TGI in [1], in assay [2], in assay [3], in assay [4], in [6] and in assay [9] was over 100 µM in each case.

As for `COc1cc(S(=O)(=O)Nc2ccc(-c3csc(N4C(=O)CSC4c4cccc(Oc5ccccc5)c4)n3)cc2)ccc1Cl` (stereo unspecified), the TGI in [1], in assay [2], in assay [10], in assay [3], in [4] and in assay [5] was over 100 µM each time. Further, the TGI was 87.7 µM in [7], over 100 µM in assay [8] and 33.9 µM in assay [9].

Take `Cc1ccc(Nc2nc(NNC(=O)Cc3ccccc3)nc(NNC(=O)c3ccncc3)n2)cc1`: the TGI in assay [1], in [4], in [7], in assay [8] and in assay [9] was over 10 µM each time.

As for `Oc1ccc(NCn2c(=S)sc3ccccc32)cc1`, the TGI in assay [1] is over 100 µM; in assay [2] it was 40.5 µM; in assay [10], over 100 µM; in assay [3], over 100 µM; in assay [4], over 100 µM; in assay [5], over 100 µM. Further, the TGI in assay [6], in assay [7] and in [9] was over 100 µM each time.

For the compound `COc1ccc(C(C)NNC(=O)c2ccncc2)cc1OC` (stereo unspecified), the TGI in assay [1], in assay [10], in assay [3], in assay [4], in assay [5] and in [6] was over 100 µM throughout. Besides, the TGI in assay [7], in [8] and in assay [9] was over 100 µM each time.

`C=C1c2nc3ccccc3n2C=C(c2ccc(OC)cc2)N1c1ccc(OC)cc1`: the TGI in assay [1] was 39.8 µM; in [2] it was over 100 µM; in assay [10] it was 32.2 µM; in assay [3], over 100 µM; in assay [4], over 100 µM; in assay [5], 32.6 µM. Also, the TGI in [6] and in assay [8] was over 100 µM in each case.

Turning to `CCOC(=O)c1cn2c(n1)sc1cc(F)ccc12`, the TGI in [1], in [2], in assay [10], in [3], in [4] and in assay [5] was over 100 µM in each case. For the same compound, the TGI in assay [6], in assay [7], in assay [8] and in assay [9] was over 100 µM throughout.

For `Cc1nn(C(=O)Cc2ccccc2)c2c1C(c1ccccc1)SC(N)=N2` (stereo unspecified), the TGI in [1], in assay [2], in assay [4], in assay [5], in assay [7] and in assay [8] was over 100 µM in each case. Moreover, the TGI in assay [9] was over 100 µM.

Regarding `CC(C)C(NC(=O)Oc1ccccc1)C(=O)NC1c2c(Br)sc(Br)c2C(=O)C1O` (stereo unspecified), the TGI in assay [1] was 8.16 µM; in assay [10] it was 8.21 µM; in assay [3], 15.4 µM; in assay [5], over 25 µM; in assay [6], 17.7 µM; in assay [7] it was 8.67 µM. For the same compound, in [9], the TGI is 16.7 µM.

Regarding `COc1ccc(S(=O)(=O)n2c3c(c4ccccc42)[C@@H]2[C@@H](CCCN2C(=O)CS(=O)c2ccc(C)cc2)[C@H](Cl)C3)cc1` (stereo partly specified), the TGI in assay [1], in assay [2], in assay [10], in [3], in assay [5] and in assay [6] was over 100 µM each time. Moreover, the TGI in [7], in assay [8] and in assay [9] was over 100 µM in each case.

On to `COC(=O)c1ccc(Cc2cc(Cc3ccc(C(=O)OC)cc3)cc(Cc3ccc(C(=O)OC)cc3)c2)cc1`, for which the TGI in [1], in assay [2], in assay [10], in [3], in assay [4] and in [5] was over 25 µM in each case. The TGI in assay [6], in assay [7] and in assay [8] was over 25 µM each time.

Turning to `CCOC(=O)c1nnn(CCCCO)c1C(=O)OCC`, the TGI in assay [1], in assay [5], in assay [6], in assay [7], in assay [8] and in [9] was over 100 µM each time.

With `CC1=NN(c2nc(N)nc(COc3ccc(N)cc3)n2)C(C)(C)C1`, the TGI in assay [1], in [4], in assay [5], in assay [6], in assay [7] and in [8] was over 100 µM each time. The TGI in assay [9] was over 100 µM.

In the case of `Nc1ncc2c(n1)-c1ccccc1OC2N1CCCCC1` (stereo unspecified), the TGI in assay [1], in assay [2], in [10], in assay [3], in assay [4] and in assay [5] was over 100 µM each time. Also, the TGI in assay [6], in assay [8] and in [9] was over 100 µM throughout.

On to `Cc1ccc(S[C@@H](C)[C@@](O)(CF)CN(Cc2ccccc2)C(=O)C(F)(F)F)cc1`, for which the TGI was 46.5 µM in assay [1]; over 100 µM in assay [2]; 27 µM in assay [10]; 34.8 µM in [3]; 36.5 µM in assay [6]; over 100 µM in assay [7]. In addition, in assay [9], the TGI amounted to 68.5 µM.

With `COc1ccc2oc3c(C)cc4c(OC)nnc(OC)c4c3c2c1`, the TGI in assay [1], in [2], in [10], in assay [3], in [4] and in assay [5] was over 100 µM in each case. The TGI in assay [6], in [7] and in assay [9] was over 100 µM in each case.

On to `O=S(=O)(O)c1cc(N=Nc2c(O)ccc3ccccc23)cc2c(S(=O)(=O)O)cccc12`, for which the TGI in assay [1], in assay [2], in assay [10], in assay [3], in [4] and in assay [5] was over 100 µM in each case. Also, the TGI in assay [6], in assay [7] and in assay [8] was over 100 µM each time.

As to `O=C(O)Cc1ccc([N+](=O)[O-])cc1[N+](=O)[O-]`, the TGI in [1], in assay [2], in assay [10], in [3], in assay [4] and in assay [5] was over 100 µM throughout. Moreover, the TGI in assay [6], in [7] and in assay [9] was over 100 µM throughout.

For the compound `CO[C@](C(=O)OC[C@H]1[C@@H](COC(C)=O)[C@@H]2O[C@H]1c1cc3c(cc12)OCO3)(c1ccccc1)C(F)(F)F`, the TGI in assay [1] was over 100 µM; in assay [2], 17.2 µM; in [10], over 100 µM; in assay [3], over 100 µM; in [4], 38.7 µM; in assay [5], 58.6 µM. Besides, the values for the TGI in assay [6], in [7] and in assay [8] were 91.3 µM, over 100 µM and over 100 µM, respectively.

`Cc1ccc(S(=O)(=O)N2C3C=CC(C3)[C@@H]2C(Cl)(Cl)Cl)cc1` (stereo partly specified): the TGI in [1] came to 32.4 µM; in assay [2], 41.3 µM; in [10], 25.3 µM; in [4] it was 32.1 µM; in assay [5], 35.1 µM; in assay [6] it was 35.5 µM. Besides, the TGI in assay [7] was 57.2 µM; in assay [8], 43.2 µM; in [9], over 100 µM.
